Common to all, as to format: cell-based
The target of one assay is T1, SOS1 (Homo sapiens, UniProt Q07889).
T1 construct: Whole cell extracts were prepared using an immunoprecipitation (IP) lysis buffer; endogenous in cells; host or cells: MV-4-11
T1 sequence (Q07889 1-1333): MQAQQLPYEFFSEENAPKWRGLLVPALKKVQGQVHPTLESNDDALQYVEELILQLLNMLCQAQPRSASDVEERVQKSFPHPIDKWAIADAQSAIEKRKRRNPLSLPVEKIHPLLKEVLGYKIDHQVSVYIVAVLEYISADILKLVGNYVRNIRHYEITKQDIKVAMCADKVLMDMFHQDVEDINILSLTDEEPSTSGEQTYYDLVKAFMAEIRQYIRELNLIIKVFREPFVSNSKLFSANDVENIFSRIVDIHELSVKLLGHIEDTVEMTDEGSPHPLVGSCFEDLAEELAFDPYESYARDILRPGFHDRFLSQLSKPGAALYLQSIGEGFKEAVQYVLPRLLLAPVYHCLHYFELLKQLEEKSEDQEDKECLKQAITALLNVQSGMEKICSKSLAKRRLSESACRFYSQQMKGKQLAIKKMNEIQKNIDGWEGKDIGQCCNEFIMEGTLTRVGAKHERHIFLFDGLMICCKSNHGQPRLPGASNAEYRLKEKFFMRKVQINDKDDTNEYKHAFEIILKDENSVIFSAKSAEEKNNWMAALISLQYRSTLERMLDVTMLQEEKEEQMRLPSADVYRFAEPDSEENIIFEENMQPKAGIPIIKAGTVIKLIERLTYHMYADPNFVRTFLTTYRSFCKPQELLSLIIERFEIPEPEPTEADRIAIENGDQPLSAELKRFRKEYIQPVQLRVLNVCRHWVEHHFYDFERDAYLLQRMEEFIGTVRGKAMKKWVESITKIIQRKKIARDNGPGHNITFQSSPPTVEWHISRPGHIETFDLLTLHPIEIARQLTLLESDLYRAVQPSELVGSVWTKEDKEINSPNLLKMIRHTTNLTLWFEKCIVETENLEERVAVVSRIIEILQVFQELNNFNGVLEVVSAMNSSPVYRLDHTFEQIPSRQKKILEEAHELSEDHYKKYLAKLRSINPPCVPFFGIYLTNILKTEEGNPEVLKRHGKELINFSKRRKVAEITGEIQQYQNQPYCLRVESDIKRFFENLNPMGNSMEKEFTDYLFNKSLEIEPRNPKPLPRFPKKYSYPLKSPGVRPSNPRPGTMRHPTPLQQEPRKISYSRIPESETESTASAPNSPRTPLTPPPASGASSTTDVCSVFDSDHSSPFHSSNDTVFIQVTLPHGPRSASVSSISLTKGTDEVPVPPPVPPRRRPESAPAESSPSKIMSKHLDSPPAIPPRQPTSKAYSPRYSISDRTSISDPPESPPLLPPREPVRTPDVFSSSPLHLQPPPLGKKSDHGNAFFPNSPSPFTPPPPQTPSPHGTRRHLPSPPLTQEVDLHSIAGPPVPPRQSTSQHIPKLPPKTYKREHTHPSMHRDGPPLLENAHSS
The assay can be described thus: Protein degradation assay (western blot) in MV-4-11 cells. The settings on record: 6 h; for Degradation 3 μM (SOS1 protein, % degradation relative to DMSO control): compound at 3 μM; for Degradation 10 μM (SOS1 protein, % degradation relative to DMSO control): compound at 10 μM. How it is done: MV-4-11 cells were grown in RPMI 1640 media supplemented with 10% fetal bovine serum, streptomycin, and penicillin. The cells were plated in 24-well plates in the growth media. The cells were then treated with a compound at indicated concentrations for 6 h. Whole cell extracts were prepared using an immunoprecipitation (IP) lysis buffer. Briefly, the cells were washed once in PBS, and the cell pellets were resuspended in the IP lysis buffer and incubated for 15 min on ice. Cell debris was removed by centrifugation and the cleared whole cell lysates were transferred to new tubes for further analysis.
For a western blot analysis, the whole cell protein extracts were separated on 4-12% SDS-polyacrylamide gels, transferred to nitrocellulose, and probed with primary antibodies. The nitrocellulose was subsequently washed and probed with IRDYE® secondary antibodies. The signals were detected using an ODYSSEY® Imaging System. The antibodies used in the assay included anti-SOS1; anti-KRAS; β-actin mouse monoclonal antibody; IRDYE® 680RD goat anti-rabbit antibody; and IRDYE® 800CW goat anti-mouse antibody.
[…] The % degradation values relative to the DMSO control are reported as “A,” “B,” “C,” or “D;” where “A” represents a percentage degradation value of no less than 50%; “B” represents a percentage degradation value of less than 50% and no less than 25%; “C” represents a percentage degradation value of less than 25% and no less than 10%; and “D” represents a percentage degradation value of less than 10%.
In general terms: Immunoblotting shows a protein as a band on a membrane.

In another assay the test system is SW480 (G12V) cells. The assay can be described thus: Cell viability assay (CELLTITER-GLO), SW480 cells. The settings on record: Homo sapiens, 72 h, Inhibition of cancerous cells, 3 days incubation, luminescence. The gist of the method: (§1)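 Cells plated in medium with 2.5% FBS and exposed to compound (DMSO control) for 3 days at 37° C., 5% CO2. Viability read as luminescence after CellTiter-Glo addition and 10 min shaking; IC50 values derived.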

The test system of another assay is Lovo (G13D) cells. The assay can be described thus: Cell viability assay (CELLTITER-GLO), Lovo cells. The following applies: Homo sapiens, 72 h, Inhibition of cancerous cells, 3 days incubation, luminescence. The gist of the method:
as §1
A general note: Cellular ATP, detected with luciferase, serves as a proxy for viable cell number.

For another assay, the system named is SW48 (wt) cells. Briefly: Cell viability assay (CELLTITER-GLO), SW48 cells. The following applies: Homo sapiens, 72 h, Inhibition of cancerous cells, 3 days incubation, luminescence. The gist of the method:
as §1

In a further assay the test system is H358 (G12C) cells. The assay can be described thus: Cell viability assay (CELLTITER-GLO), H358 cells. The settings on record: Homo sapiens, NCI-H358, 72 h, Inhibition of cancerous cells, 3 days incubation, luminescence. The gist of the method: as §1

Take `CNCc1ccccc1-c1csc([C@@H](C)Nc2nc(CCCCCCCCN3CCCCC3)nc3cc(OC)c(OC)cc23)c1` [Compound C1, (R)-6,7-Dimethoxy-N-(1-(4-(2-((methylamino)methyl)phenyl)thiophen-2-yl)ethyl)-2-(8-(piperidin-1-yl)octyl)quinazolin-4-amine]: at SOS1, the “Degradation 3 μM (SOS1 protein, % degradation relative to DMSO control)” value is on record as “D (a percentage degradation value of less than 10%)” and the “Degradation 10 μM (SOS1 protein, % degradation relative to DMSO control)” value is reported as “D (a percentage degradation value of less than 10%)”.

The IC50 is the concentration that inhibits the measured activity by half. A lower IC50 goes with inhibition by little substance. Turning to `COc1cc2c(N[C@H](C)c3cccc(Br)c3)nc(C)nc2cc1OCCCCCCCN1CCCCC1` [Compound A1, (R)—N-(1-(3-bromophenyl)ethyl)-6-methoxy-2-methyl-7-((7-(piperidin-1-yl)heptyl)oxy)quinazolin-4-amine], the IC50 in the assay on SW480 (G12V) cells was 0.52 µM; in the assay on Lovo (G13D) cells, 0.63 µM; with SW48 (wt) cells it was 0.68 µM; with H358 (G12C) cells, 1.1 µM. Besides, the “Degradation 3 μM (SOS1 protein, % degradation relative to DMSO control)” value at SOS1 is “B (a percentage degradation value of less than 50% and no less than 25%)”. Besides, on SOS1, the “Degradation 10 μM (SOS1 protein, % degradation relative to DMSO control)” value was “A (a percentage degradation value of no less than 50%)”.

These data come from patent US20240197888A1, “SOS1 PROTEIN DEGRADERS, PHARMACEUTICAL COMPOSITIONS THEREOF, AND THEIR THERAPEUTIC APPLICATIONS” (BioTheryX, Inc., priority 2021, published 2024).
